Measured values reported in US20250207131A1, “MODIFIED RNA AGENTS WITH REDUCED OFF-TARGET EFFECT” (Alnylam Pharmaceuticals, Inc., priority 2018, published 2025).

Key:
Pol-RMT = Pol-RMT (Homo sapiens, UniProt O00411); assay: Triphosphate incorporation assay by Pol-RMT; assay type: biochemical; details: 200 nM template, 50 nM primer, 300 nM enzyme, 1 mM or 100 μM NTPs, 30 min, 35° C.
Description: (§1) 5′-(R)- and (S)—C-Me-guanosine triphosphate Evaluations: 5′-(R)- and (S)—C-Me-guanosine triphosphate were evaluated with Pol-RMT and DNA Pol-γ. Mitochondrial toxicity is a common feature with nucleoside analog drugs (liver/metabolic effects, myopathies, peripheral neuropathy). Replication of mitochondria occurs during all phases of cell cycle, including post-mitotic cells. Mito replication in post-mitotic cells becomes preferential consumer of endogenous nucleotide pools. Mitochondrial polymerases (pol-γ, Pol-RMT) have limited exonuclease (proofreading) capability. Alterations/effects to nuclear DNA more likely to manifest in other test systems. […] Analytical IEX-HPLC with fluorescence detection for optimal resolution of primer-extended products is used to detect—especially important in competition mixtures. This assays was applied for the assessment of incorporation efficiencies.
The reaction conditions were; 200 nM template, 50 nM primer, 300 nM enzyme and 1 mM or 100 μM NTPs, 30 min, 35° C.

DNA Pol-γ = target: T1, DNA Pol-γ (Homo sapiens, UniProt P54098); assay: Triphosphate incorporation assay by DNA Pol-γ; assay type: biochemical; details: 100 nM template, 100 nM primer, 40 Units of enzyme, 1 mM or 100 μM dNTPs, 30 min, 37° C.
T1 sequence (P54098 1-1239): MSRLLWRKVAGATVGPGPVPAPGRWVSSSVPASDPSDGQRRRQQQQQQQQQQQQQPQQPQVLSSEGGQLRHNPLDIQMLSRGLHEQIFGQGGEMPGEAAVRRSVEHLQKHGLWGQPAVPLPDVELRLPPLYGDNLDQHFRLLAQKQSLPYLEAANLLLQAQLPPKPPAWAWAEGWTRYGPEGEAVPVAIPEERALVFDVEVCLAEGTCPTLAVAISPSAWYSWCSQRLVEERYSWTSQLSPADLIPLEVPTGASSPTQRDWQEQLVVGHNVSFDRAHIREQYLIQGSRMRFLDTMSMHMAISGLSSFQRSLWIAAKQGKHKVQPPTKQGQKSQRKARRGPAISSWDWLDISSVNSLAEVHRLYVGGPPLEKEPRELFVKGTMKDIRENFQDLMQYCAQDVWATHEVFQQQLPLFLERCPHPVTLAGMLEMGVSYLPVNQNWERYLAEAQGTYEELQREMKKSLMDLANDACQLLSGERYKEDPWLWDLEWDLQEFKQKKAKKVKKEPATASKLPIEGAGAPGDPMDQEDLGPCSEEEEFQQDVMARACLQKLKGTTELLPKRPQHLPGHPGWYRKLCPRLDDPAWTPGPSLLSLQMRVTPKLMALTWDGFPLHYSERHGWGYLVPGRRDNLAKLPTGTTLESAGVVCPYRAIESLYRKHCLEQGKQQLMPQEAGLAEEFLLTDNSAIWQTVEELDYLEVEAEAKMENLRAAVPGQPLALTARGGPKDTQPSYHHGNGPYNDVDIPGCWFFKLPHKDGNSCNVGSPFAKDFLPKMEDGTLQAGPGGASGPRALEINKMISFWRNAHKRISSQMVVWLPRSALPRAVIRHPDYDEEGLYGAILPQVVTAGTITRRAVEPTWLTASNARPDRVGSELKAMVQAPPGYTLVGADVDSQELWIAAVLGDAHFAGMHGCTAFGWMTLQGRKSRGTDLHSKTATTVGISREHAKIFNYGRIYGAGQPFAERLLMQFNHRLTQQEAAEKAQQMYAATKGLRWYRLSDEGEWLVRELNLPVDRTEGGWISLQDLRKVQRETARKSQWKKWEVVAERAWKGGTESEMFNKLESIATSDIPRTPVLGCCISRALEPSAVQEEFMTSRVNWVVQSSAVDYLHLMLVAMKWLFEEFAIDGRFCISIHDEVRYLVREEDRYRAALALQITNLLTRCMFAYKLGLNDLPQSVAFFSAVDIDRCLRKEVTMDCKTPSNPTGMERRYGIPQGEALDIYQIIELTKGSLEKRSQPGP
Description: as §1
The reaction conditions were: Reaction: 100 nM template, 100 nM primer, 40 Units of enzyme and 1 mM or 100 μM dNTPs, 30 min, 37° C.; diluted to 5 nM primer and analyzed by FLD-IEX-HPLC (Ex: 437, Em: 483 nm).

GO1 (HAO1) = assay: In vitro on-target activity, primary mouse hepatocytes, transfection, RT-qPCR (GO1/HAO1 siRNAs); assay type: cell-based; details: HAO1 (Seq 1)
Description: Cell culture and transfections: Primary Mouse Hepatocytes (Thermo Fisher Scientific/Gibco) were transfected by adding 4.9 μL of Opti-MEM plus 0.1 μL of Lipofectamine RNAiMax per well (Invitrogen, cat #13778-150) to 5 μL of siRNA duplexes per well into a 384-well plate and incubated at room temperature for 15 minutes. 40 μL of Dulbecco's Modified Eagle Medium (Hep3b) or William's Medium (PMH) containing ˜5 ×10^3 cells were then added to the siRNA mixture. Cells were incubated for 24 hours at 37° C. and then processed for RNA purification. Experiments were performed at 10 nM and 0.1 nM doses of siRNA.
Total RNA isolation using DYNABEADS mRNA Isolation Kit: RNA was isolated using an automated protocol on a BioTek-EL406 platform using DYNABEADs (Invitrogen, cat #61012). Briefly, 70 μL of Lysis/Binding Buffer and 10 μL of lysis buffer containing 3 μL of magnetic beads were added to each well. […]
Real time PCR: 2 μL of cDNA were added to a master mix containing 2 μL water, 0.5 μL of either an appropriate GAPDH TaqMan VIC Probe or the target probe and 5 μL Lightcycler 480 probe master mix (Roche, cat #04887301001) per well in a 384 well plate (Roche, cat #04887301001). […] To calculate relative fold change, real time data were analyzed using the ΔΔCt method and normalized to assays performed with cells transfected with a non-targeting control siRNA.

[1] = tested on: luciferase reporter plasmids (psiCHECK2, Renilla luciferase fused to target sequence); assay: Off-target Dual-Glo luciferase reporter assay in COS-7 cells; assay type: cell-based; details: HAO1 (Seq 1); luciferase reporter plasmids co-transfected with siRNAs into COS-7 cells
Description: Dual-Glo® Luciferase assay: Cos7 cells (ATCC, Manassas, VA) were grown to near confluence at 37° C. in an atmosphere of 5% CO2 in DMEM (ATCC) supplemented with 10% FBS, before being released from the plate by trypsinization. siRNA and psiCHCECK2 plasmid transfection was carried out by adding 5 μL of siRNA duplexes and 5 μL of psiCHECK2 plasmid per well along with 5 μL of Opti-MEM plus 0.1 μL of Lipofectamine 2000 per well (Invitrogen, Carlsbad CA. cat #13778-150) and then incubated at room temperature for 15 minutes. The mixture was then added to the cells which were re-suspended in 35 ul of fresh complete media. The transfected cells were incubated at 37° C. in an atmosphere of 5% CO2.
48 hours after the siRNAs and psiCHECK2 plasmid were transfected; Firefly (transfection control) and Renilla (fused to target sequence) luciferase were measured. First, media was removed from cells. Then Firefly luciferase activity was measured by adding 20 μL of Dual-Glo® Luciferase Reagent equal to the culture medium volume to each well and mix. The mixture was incubated at room temperature for 30 minutes before luminescence (500 nm) was measured on a Spectramax (Molecular Devices) to detect the Firefly luciferase signal. Renilla luciferase activity was measured by adding 20 μL of room temperature of Dual-Glo® Stop & Glo® Reagent was added to each well and the plates were incubated for 10-15 minutes before luminescence was again measured to determine the Renilla luciferase signal. The Dual-Glo® Stop & Glo® Reagent, quenches the firefly luciferase signal and sustained luminescence for the Renilla luciferase reaction. siRNA activity was determined by normalizing the Renilla signal to the Firefly (control) signal within each well. The magnitude of siRNA activity was then assessed relative to cells that were transfected with the same vector but were not treated with siRNA or were treated with a non-targeting siRNA. All transfections were done at n=2 or greater.

[2] = rat, in vivo, sc, 30 mg/kg
[3] = Rat toxicity study, clinical pathology parameters; details: rats, single subcutaneous dose 30 mg/kg, cohort average

Sequence of Pol-RMT (O00411 42-1230, species assumed): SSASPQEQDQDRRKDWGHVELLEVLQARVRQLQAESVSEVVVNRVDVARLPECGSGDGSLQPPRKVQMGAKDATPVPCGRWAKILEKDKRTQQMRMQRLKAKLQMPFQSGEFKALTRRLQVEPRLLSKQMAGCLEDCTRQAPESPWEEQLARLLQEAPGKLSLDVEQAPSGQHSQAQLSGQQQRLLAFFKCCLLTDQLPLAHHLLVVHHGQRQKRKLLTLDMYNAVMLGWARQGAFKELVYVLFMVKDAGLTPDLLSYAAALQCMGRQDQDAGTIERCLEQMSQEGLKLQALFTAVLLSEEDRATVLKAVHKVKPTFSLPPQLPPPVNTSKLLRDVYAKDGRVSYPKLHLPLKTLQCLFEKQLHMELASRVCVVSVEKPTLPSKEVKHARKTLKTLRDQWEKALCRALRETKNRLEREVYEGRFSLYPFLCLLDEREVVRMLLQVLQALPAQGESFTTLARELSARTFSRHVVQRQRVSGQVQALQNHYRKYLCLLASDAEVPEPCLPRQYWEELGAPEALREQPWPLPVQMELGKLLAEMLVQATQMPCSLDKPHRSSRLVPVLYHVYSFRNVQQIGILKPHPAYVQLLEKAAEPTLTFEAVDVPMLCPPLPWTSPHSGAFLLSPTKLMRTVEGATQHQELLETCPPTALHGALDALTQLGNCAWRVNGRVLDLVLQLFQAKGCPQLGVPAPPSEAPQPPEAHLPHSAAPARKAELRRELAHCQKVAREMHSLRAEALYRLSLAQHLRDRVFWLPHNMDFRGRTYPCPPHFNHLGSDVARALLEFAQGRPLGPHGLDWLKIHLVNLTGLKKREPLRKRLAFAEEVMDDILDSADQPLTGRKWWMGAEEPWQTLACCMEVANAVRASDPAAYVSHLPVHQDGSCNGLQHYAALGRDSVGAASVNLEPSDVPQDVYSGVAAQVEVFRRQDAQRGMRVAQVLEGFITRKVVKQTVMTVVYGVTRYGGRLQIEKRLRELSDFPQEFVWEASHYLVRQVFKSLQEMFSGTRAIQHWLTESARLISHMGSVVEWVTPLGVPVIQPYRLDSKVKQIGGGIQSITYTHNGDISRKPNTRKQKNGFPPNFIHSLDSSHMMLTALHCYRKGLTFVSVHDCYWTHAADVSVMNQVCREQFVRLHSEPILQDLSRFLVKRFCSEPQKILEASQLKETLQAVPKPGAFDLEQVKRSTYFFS

## C[C@H](OP(=O)(O)OP(=O)(O)OP(=O)(O)O)[C@H]1O[C@@H](n2cnc3c(=O)[nH]c(N)nc32)[C@H](O)[C@@H]1O [5′-(S)—C-Me-G triphosphate (GTP), 5′-(S)—C-Me-guanosine triphosphate]
Pol-RMT
  incorporation by Pol-RMT: incorporates in Pol-RMT at high concentrations
DNA Pol-γ
  incorporation by Pol-γ: Neither 5′-(S) nor (R)—C-Me-Gtp incorporate in Pol-γ at high concentrations

## Parent (AD-65644): GO1 siRNA; passenger g•a•auguGaaAGucaucgacaa(L), guide u•U•gucGaUGacuuUcAcauuc•u•g (sense AUGUGAAAGUCAUCGACAA; antisense GUCGAUGACUUUCACAUUC; phosphorothioate ends, overhangs, chemistry not fully specified)
GO1 (HAO1); 0.1 nM siRNA
  On-Target mRNA remaining (%) 0.1 nM siRNA: 96.1%
GO1 (HAO1); 10 nM siRNA
  On-Target mRNA remaining (%) 10 nM siRNA: 27.7%
[1]
  IC50: 0.53 nM
[2]
  A/G Avg.: 1.1
[3]
  ALB Avg.: 3.0 g/dL
  ALP Avg.: 449 U/L
  ALT Avg.: 47 U/L
  AST Avg.: 180 U/L
  BILI Avg.: 0.52 mg/dL
  CA Avg.: 10.3 mg/dL
  CHOL Avg.: 74 mg/dL
  CREAT Avg.: 0.23 mg/dL
  GLDH Avg.: 77.5 U/L
  GLOB Avg.: 2.63 g/dL
  GLUC Avg.: 113 mg/dL
  K Avg.: 4.3 mmol/L
  NA Avg.: 140 mmol/L
  PHOS Avg.: 8.8 mg/dL
  PROT Avg.: 6 g/dL
  TRIG Avg.: 138 mg/dL
  UREAN Avg.: 16.8 mg/dL

## C[C@@H](OP(=O)(O)OP(=O)(O)OP(=O)(O)O)[C@H]1O[C@@H](n2cnc3c(=O)[nH]c(N)nc32)[C@H](O)[C@@H]1O [5′-(R)—C-Me-GTP, 5′-(R)—C-Me-guanosine triphosphate]
Pol-RMT
  incorporation by Pol-RMT: appears not incorporate in Pol-RMT
DNA Pol-γ
  incorporation by Pol-γ: Neither 5′-(S) nor (R)—C-Me-Gtp incorporate in Pol-γ at high concentrations
